According to PubChem BioAssay (NCI):
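Compound exposure: 48 hours, 5 concentrations, 96-well plates. The concentration for full growth arrest is given as TGI.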

Experiments:
Assay in all cases: DTP human tumour cell line panel, 48 h
786-0 renal = tested on: 786-0 renal
A549 NSCLC = tested on: A549 NSCLC
ACHN renal = tested on: ACHN renal
BT-549 breast = tested on: BT-549 breast
CAKI-1 renal = tested on: CAKI-1 renal
CCRF-CEM leukemia = tested on: CCRF-CEM leukemia
COLO 205 colon = tested on: COLO 205 colon
DU-145 prostate = tested on: DU-145 prostate
EKVX NSCLC = tested on: EKVX NSCLC
HCC-2998 colon = tested on: HCC-2998 colon
HCT-116 colon = tested on: HCT-116 colon
HCT-15 colon = tested on: HCT-15 colon
HL-60(TB) leukemia = tested on: HL-60(TB) leukemia
HOP-62 NSCLC = tested on: HOP-62 NSCLC
HOP-92 NSCLC = tested on: HOP-92 NSCLC
HS 578T breast = tested on: HS 578T breast
HT29 colon = tested on: HT29 colon
IGROV1 ovarian = tested on: IGROV1 ovarian
K-562 leukemia = tested on: K-562 leukemia
KM12 colon = tested on: KM12 colon
LOX IMVI melanoma = tested on: LOX IMVI melanoma
M14 melanoma = tested on: M14 melanoma
MCF7 breast = tested on: MCF7 breast
MDA-MB-231 breast = tested on: MDA-MB-231 breast
MDA-MB-435 = tested on: MDA-MB-435
MDA-N = tested on: MDA-N
MOLT-4 leukemia = tested on: MOLT-4 leukemia
NCI-H226 lung = tested on: NCI-H226 lung
NCI-H23 lung = tested on: NCI-H23 lung
NCI-H460 lung = tested on: NCI-H460 lung
NCI-H522 lung = tested on: NCI-H522 lung
NCI/ADR-RES ovarian = tested on: NCI/ADR-RES ovarian
OVCAR-3 ovarian = tested on: OVCAR-3 ovarian
OVCAR-4 ovarian = tested on: OVCAR-4 ovarian
OVCAR-5 ovarian = tested on: OVCAR-5 ovarian
OVCAR-8 ovarian = tested on: OVCAR-8 ovarian
PC-3 prostate = tested on: PC-3 prostate
RPMI-8226 leukemia = tested on: RPMI-8226 leukemia
RXF 393 renal = tested on: RXF 393 renal
SF-268 CNS = tested on: SF-268 CNS
SF-295 CNS = tested on: SF-295 CNS
SF-539 CNS = tested on: SF-539 CNS
SK-MEL-2 melanoma = tested on: SK-MEL-2 melanoma
SK-MEL-28 melanoma = tested on: SK-MEL-28 melanoma
SK-MEL-5 melanoma = tested on: SK-MEL-5 melanoma
SK-OV-3 ovarian = tested on: SK-OV-3 ovarian
SN12C renal = tested on: SN12C renal
SNB-19 CNS = tested on: SNB-19 CNS
SNB-75 CNS = tested on: SNB-75 CNS
SR leukemia = tested on: SR leukemia
SW-620 colon = tested on: SW-620 colon
T-47D breast = tested on: T-47D breast
TK-10 renal = tested on: TK-10 renal
U251 CNS = tested on: U251 CNS
UACC-257 melanoma = tested on: UACC-257 melanoma
UACC-62 melanoma = tested on: UACC-62 melanoma
UO-31 renal = tested on: UO-31 renal
A498 renal = tested on: A498 renal
MALME-3M melanoma = tested on: MALME-3M melanoma

Cc1ccc(/C=C2\Sc3scc(-c4ccccc4)[n+]3C2=O)cc1
TGI (786-0 renal): > 56 µM | TGI (A549 NSCLC): > 84.3 µM | TGI (ACHN renal): 51.7 µM | TGI (BT-549 breast): 50.9 µM | TGI (CAKI-1 renal): 33.4 µM | TGI (CCRF-CEM leukemia): 32.9 µM | TGI (COLO 205 colon): 52.4 µM | TGI (DU-145 prostate): > 65.9 µM | TGI (EKVX NSCLC): > 58.5 µM | TGI (HCC-2998 colon): 75 µM | TGI (HCT-116 colon): > 52.1 µM | TGI (HCT-15 colon): 50.8 µM | TGI (HL-60(TB) leukemia): 5.31 µM | TGI (HOP-62 NSCLC): > 100 µM | TGI (HOP-92 NSCLC): > 49.7 µM | TGI (HS 578T breast): 37.5 µM | TGI (HT29 colon): 56.9 µM | TGI (IGROV1 ovarian): > 56.8 µM | TGI (K-562 leukemia): 31.5 µM | TGI (KM12 colon): > 49.5 µM | TGI (LOX IMVI melanoma): > 54.5 µM | TGI (M14 melanoma): > 94.9 µM | TGI (MCF7 breast): > 100 µM | TGI (MDA-MB-231 breast): 65 µM | TGI (MDA-MB-435): > 44.3 µM | TGI (MDA-N): > 67.1 µM | TGI (MOLT-4 leukemia): > 72.6 µM | TGI (NCI-H226 lung): > 100 µM | TGI (NCI-H23 lung): 46.4 µM | TGI (NCI-H460 lung): 42.4 µM | TGI (NCI-H522 lung): 19.6 µM | TGI (NCI/ADR-RES ovarian): > 58 µM | TGI (OVCAR-3 ovarian): > 100 µM | TGI (OVCAR-4 ovarian): > 81.1 µM | TGI (OVCAR-5 ovarian): > 100 µM | TGI (OVCAR-8 ovarian): > 56.6 µM | TGI (PC-3 prostate): > 100 µM | TGI (RPMI-8226 leukemia): 35.4 µM | TGI (RXF 393 renal): 90.2 µM | TGI (SF-268 CNS): 45.5 µM | TGI (SF-295 CNS): > 70.3 µM | TGI (SF-539 CNS): > 60.6 µM | TGI (SK-MEL-2 melanoma): > 89.1 µM | TGI (SK-MEL-28 melanoma): > 100 µM | TGI (SK-MEL-5 melanoma): > 58.2 µM | TGI (SK-OV-3 ovarian): > 67.6 µM | TGI (SN12C renal): > 54.2 µM | TGI (SNB-19 CNS): > 72 µM | TGI (SNB-75 CNS): > 58.9 µM | TGI (SR leukemia): 26.4 µM | TGI (SW-620 colon): > 52.4 µM | TGI (T-47D breast): > 100 µM | TGI (TK-10 renal): 53.1 µM | TGI (U251 CNS): 47.5 µM | TGI (UACC-257 melanoma): > 62.3 µM | TGI (UACC-62 melanoma): 45.6 µM | TGI (UO-31 renal): 32 µM

C[C@@H](CC(O)C(O)C(C)(C)O)C1CCC23CC12CCC1[C@@]2(C)CCC(O)C(C)(C)C2CC(OC2OC(CO)C(O)C(O)C2O)[C@]13C (stereo not given in full)
TGI (786-0 renal): > 10 µM | TGI (A498 renal): > 10 µM | TGI (A549 NSCLC): > 10 µM | TGI (ACHN renal): > 10 µM | TGI (BT-549 breast): > 10 µM | TGI (CAKI-1 renal): > 10 µM | TGI (CCRF-CEM leukemia): > 10 µM | TGI (COLO 205 colon): > 10 µM | TGI (DU-145 prostate): > 10 µM | TGI (EKVX NSCLC): > 10 µM | TGI (HCC-2998 colon): > 10 µM | TGI (HCT-116 colon): > 10 µM | TGI (HCT-15 colon): > 10 µM | TGI (HL-60(TB) leukemia): > 10 µM | TGI (HOP-62 NSCLC): > 10 µM | TGI (HOP-92 NSCLC): > 10 µM | TGI (HS 578T breast): > 10 µM | TGI (HT29 colon): > 10 µM | TGI (IGROV1 ovarian): > 10 µM | TGI (K-562 leukemia): > 10 µM | TGI (KM12 colon): > 10 µM | TGI (LOX IMVI melanoma): > 10 µM | TGI (M14 melanoma): > 10 µM | TGI (MALME-3M melanoma): > 10 µM | TGI (MCF7 breast): > 10 µM | TGI (MDA-MB-231 breast): > 10 µM | TGI (MDA-MB-435): > 10 µM | TGI (MDA-N): > 10 µM | TGI (MOLT-4 leukemia): > 10 µM | TGI (NCI-H226 lung): > 10 µM | TGI (NCI-H23 lung): > 10 µM | TGI (NCI-H460 lung): > 10 µM | TGI (NCI-H522 lung): > 10 µM | TGI (NCI/ADR-RES ovarian): > 10 µM | TGI (OVCAR-3 ovarian): > 10 µM | TGI (OVCAR-4 ovarian): > 10 µM | TGI (OVCAR-5 ovarian): > 10 µM | TGI (OVCAR-8 ovarian): > 10 µM | TGI (PC-3 prostate): > 10 µM | TGI (RPMI-8226 leukemia): > 10 µM | TGI (RXF 393 renal): > 10 µM | TGI (SF-268 CNS): > 10 µM | TGI (SF-295 CNS): > 10 µM | TGI (SF-539 CNS): > 10 µM | TGI (SK-MEL-2 melanoma): > 10 µM | TGI (SK-MEL-28 melanoma): > 10 µM | TGI (SK-MEL-5 melanoma): > 10 µM | TGI (SK-OV-3 ovarian): > 10 µM | TGI (SN12C renal): > 10 µM | TGI (SNB-19 CNS): > 10 µM | TGI (SNB-75 CNS): > 10 µM | TGI (SW-620 colon): > 10 µM | TGI (T-47D breast): > 10 µM | TGI (TK-10 renal): > 10 µM | TGI (U251 CNS): > 10 µM | TGI (UACC-257 melanoma): > 10 µM | TGI (UACC-62 melanoma): > 10 µM | TGI (UO-31 renal): > 10 µM
